Measured values taken from patent US20100184815A1 (priority 2008, published 2010).

Assays:
[1] = Metabolism studies using human liver microsomal preparations; format: in vitro ADME
Protocol: Compounds were incubated in pooled human liver microsomes (HLMs) in the presence or absence of an NADPH-generating system. NADPH is required for the activity of cytochrome P450 (CYP) and other oxidative enzymes present in HLMs, but not for esterase activity. An additional incubation was carried out in the absence of HLM to assess compound stability. The disappearance of parent and the appearance of the corresponding acid metabolite were monitored over the time course of the incubations using LC-MS/MS.
A stock solution (20 mM) of each proprietary compound in DMSO was prepared and store at −20° C. until needed. A working stock solution (0.2 mM) was prepared for each proprietary compound by adding an aliquot of the stock solution (10 μL) to acetonitrile (990 μL).
An aliquot of the HLM solution was removed from the −80° C. freezer and placed on ice. Tris Buffer (50 mM, pH 7.4) containing MgCl2 (hexahydrate, 5 mM) was pre-incubated in a 37° C. water bath. A set of Eppendorf microfuge tubes (1.5 mL) was appropriately labeled. To each tube was added Tris buffer with or without the NADPH generating system. An aliquot of pooled HLMs was added to all the incubations except those that were the buffer control.
Tubes were preincubated for 5 min in a shaking incubator bath (37° C., 900 rpm) and the reaction was initiated by adding an aliquot of the proprietary working solution (5 μL). The additions were timed carefully in order to coordinate the sample collections below. A small aliquot (50 μL) was removed at […] and delivered to the respective tubes containing dextrorphan (100 μL of 0.5 μg/mL solution) in dissolved in methanol or acetonitrile. The samples were centrifuged at 14000 g for 15 minutes at 4° C. The supernatant was transferred to clean labeled HPLC injection vials and stored at −80° C. until analyzed. An aliquot of the supernatant […] was added to water (75 μL), mixed and injected onto the LC-MS/MS system for analysis.
“HLM t1/2” represents the observed half life of the compound under conditions that included NADPH, i.e., the CYP system was active. Comparison to the half life of the test article under (−)NADPH conditions, the enzyme predominant ly responsible for the metabolism of the test article. […] Where roughly equal metabolism is seen by each enzyme system, “mixed” is noted in the “Predominant enzyme” column.

pig liver esterase = assay: Metabolism studies using pig liver esterase; format: in vitro ADME; details: 37° C.; for Pig Liver Esterase (t1/2 min.) (+) Plasma: pig liver esterase in human plasma protein solution; for half-life at 4.9 µM: pig liver esterase in phosphate buffer pH 7.4, no plasma, read-out: Pig Liver Esterase (t1/2 min.) (−) Plasma
Protocol: The esterase-mediated metabolism of these compounds was studied using commercially available pig liver esterase in the presence and absence of human plasma proteins. The disappearance of parent was monitored over the time course of the incubations using a LC-UV detection system.
A stock solution and working stock solution was prepared for each proprietary compound as described for the human liver microsomal incubations. Working solutions of pig liver esterase in potassium phosphate buffer ([…], pH 7.4) and pig liver esterase in human plasma protein were prepared by dissolving pig liver esterase (2.51 mg) in the phosphate buffer or plasma protein solutions, respectively.
A set of three Eppendorf microfuge tubes (1.5 mL) was appropriately labeled. To each tube was added 1.5 mL of phosphate buffer, pig liver esterase in buffer, or pig liver esterase in human plasma protein solution. These solutions were pre-incubated (37° C., 900 rpm) and the reactions were initiated by adding an aliquot (37.5 μL) of the working solution of proprietary compound to each tube. An aliquot (100 μL) from each tube was removed at time 0, 5, 30, 60, and 120 min and added to a tube containing acetonitrile (200 μL) to stop the reaction.
The samples were centrifuged at 14000 g for 15 minutes at 4° C. The supernatant was transferred to clean labeled HPLC injection vials and stored at −80° C. until analyzed. An aliquot of the supernatant (25 μL) was injected onto the LC-UV system for analysis.
Half lives of a sample of test articles is noted in the following table. Half life was determined in the presence or absence of plasma.

Gal-4 hPPARα = target: T1, Gal-4 hPPARα (Homo sapiens, UniProt Q07869); assay: Gal4-hPPARα transient transfection reporter assay in Cos cells; format: cell-based; details: luciferase reporter, 24 hours with compound, scale 1-5, read-out: Gal-4 hPPAR α EC50 (scaled number)
T1 construct: Plasmids pGal4-hPPARα, pGal4-hPPARγ, pGal4-hPPARδ and pG5-TK-pGL3 were constructed as previously described by Staels, Bart, et al., Nature 1998 Jun; 25
T1 sequence (Q07869 200-468 limits assumed): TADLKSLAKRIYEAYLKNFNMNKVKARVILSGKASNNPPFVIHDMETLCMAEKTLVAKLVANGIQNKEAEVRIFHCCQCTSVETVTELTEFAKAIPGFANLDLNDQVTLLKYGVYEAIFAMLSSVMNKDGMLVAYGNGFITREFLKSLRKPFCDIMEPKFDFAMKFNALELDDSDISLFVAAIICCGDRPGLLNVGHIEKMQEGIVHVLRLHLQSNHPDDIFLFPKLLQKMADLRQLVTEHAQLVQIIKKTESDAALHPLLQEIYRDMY
Protocol: (§1) Construction of recombinant plasmids. Plasmids pGal4-hPPARα, pGal4-hPPARγ, pGal4-hPPARδ and pG5-TK-pGL3 were constructed as previously described by Staels, Bart, et al., Nature 1998 Jun. 25; 393 (6687): 790-793, by Staels (Institut Pasteur de Lille, FR).
(§2) Transient transfection assays. Cos cells were seeded in 60-mm dishes at a density of 5.5×10^5 cells/dish in Dulbecco's modified Eagle's medium (DMEM) supplemented with 10% fetal calf serum (FCS) and incubated at 37° C. for 24 hours before transfection. Cells were transfected in Opti-MEM (Gibco; Invitrogen, Carlsbad, Calif.) without FCS for 3 hours at 37° C., using polyethylenimine, with reporter and expression plasmids. The plasmid pBluescript (Stratagene, La Jolla, Calif.) was used as carrier DNA to set the final amount of DNA to 5.5 μg/dish. The pCMV-b-galactosidase expression plasmid was cotransfected as a control for transfection efficiency. Transfection was stopped by the addition of DMEM supplemented with 10% FCS, and cells were then incubated at 37° C. After 16 hours, cells were trypsinized and seeded in 96-well plates at the density of 2×10^4 cells/well and incubated for 6 hours in 10% FCS-containing DMEM. Cells were then incubated for 24 hours in DMEM containing 0.2% FCS and increasing concentrations of the compound tested or vehicle (DMSO). At the end of the experiment, cells were washed once with ice-cold PBS, lysed and the luciferase and b-galactosidase assays were performed in a luminometer and spectrophotomer. Transfection efficiencies were normalized with the b-galactosidase activity assay. Half-maximal effective concentration (EC50) was estimated using Prism software (GraphPad). All transfection experiments were performed at least three times.
(§3) In the following tables, proprietary compound EC50 values for hPPAR α, β, δ and γ are shown. The EC50 value is the concentration of a drug that induces a response halfway between the baseline and maximum, and is commonly used as a measure of drug potency. EC50 values are reported on a scale of 1 through 5, wherein the value scale is defined for each receptor as follows: […]

Gal-4 hPPARγ = target: T2, Gal-4 hPPARγ (Homo sapiens, UniProt P37231); assay: Gal4-hPPARγ transient transfection reporter assay in Cos cells; format: cell-based; details: luciferase reporter, 24 hours with compound, scale 1-5, read-out: Gal-4 hPPAR γ EC50 (scaled number)
T2 construct: Plasmids pGal4-hPPARα, pGal4-hPPARγ, pGal4-hPPARδ and pG5-TK-pGL3 were constructed as previously described by Staels, Bart, et al., Nature 1998 Jun; 25
T2 sequence (P37231 238-505 limits assumed): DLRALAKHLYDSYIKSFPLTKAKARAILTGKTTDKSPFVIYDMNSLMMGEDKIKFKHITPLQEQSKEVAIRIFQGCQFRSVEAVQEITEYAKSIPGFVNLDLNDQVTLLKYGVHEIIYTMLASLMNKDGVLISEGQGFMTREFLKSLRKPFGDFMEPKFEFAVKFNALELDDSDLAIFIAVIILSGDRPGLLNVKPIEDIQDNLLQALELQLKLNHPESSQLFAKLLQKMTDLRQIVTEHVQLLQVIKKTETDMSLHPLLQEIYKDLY
Protocol: as §1, §2, §3

Gal-4 hPPARβ/δ = target: T3, Gal-4 hPPARβ/δ (Homo sapiens, UniProt Q03181); assay: Gal4-hPPARδ transient transfection reporter assay in Cos cells; format: cell-based; details: luciferase reporter, 24 hours with compound, scale 1-5, read-out: Gal-4 hPPAR β/δ EC50 (scaled number)
T3 construct: Plasmids pGal4-hPPARα, pGal4-hPPARγ, pGal4-hPPARδ and pG5-TK-pGL3 were constructed as previously described by Staels, Bart, et al., Nature 1998 Jun; 25
T3 sequence (Q03181 171-441 limits assumed): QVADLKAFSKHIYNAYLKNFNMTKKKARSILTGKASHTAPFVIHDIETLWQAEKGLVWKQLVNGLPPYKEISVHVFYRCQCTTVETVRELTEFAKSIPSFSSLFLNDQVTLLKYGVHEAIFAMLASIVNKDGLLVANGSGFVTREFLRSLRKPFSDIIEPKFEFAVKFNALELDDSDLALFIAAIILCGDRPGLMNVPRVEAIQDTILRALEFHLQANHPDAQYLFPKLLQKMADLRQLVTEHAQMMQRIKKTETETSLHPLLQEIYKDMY
Protocol: as §1, §2, §3

[2] = pooled human liver microsomes, with NADPH (CYP system active), 37° C.

Row | SMILES | HLMs t1/2 (min) [1, 2] | Pig Liver Esterase (t1/2 min.) (+) Plasma (pig liver esterase) | half-life at 4.9 µM (pig liver esterase) [min] | EC50 (Gal-4 hPPARα) [nM] | EC50 (Gal-4 hPPARγ) [nM] | EC50 (Gal-4 hPPARβ/δ) [nM] | HLMs Predominant Enzyme ([1]; comparison of half life with and without NADPH: Esterase, CYP or Mixed) | half-life ([1]; pH 7.4, pooled human liver microsomes, with NADPH (CYP system active), 37° C., read-out: HLMs t1/2) [min]
1 | CCCCCCCCn1c(COC(=O)Cc2ccc(OC(C)(C)C(=O)O)cc2)nn(Cc2ccc(C)cc2)c1=O [Compound 012, 2-methyl-2-(4-(2-((1-(4-methylbenzyl)-4-octyl-5-oxo-4,5-dihydro-1H-1,2,4-triazol-3-yl)methoxy)-2-oxoethyl)phenoxy)propanoic acid] | Stable | Stable | 12 |  |  |  |  | 
2 | C[C@@H](Cc1cn(Cc2ccc(C(C)(C)C)cc2)nn1)OC(=O)c1ccc(SC(C)(C)C(=O)O)cc1 [Compound 133, 4-(1-Carboxy-1-methyl-ethylsulfanyl)-benzoic acid (S)-2-[1-(4-tert-butyl-benzyl)-1H-1,2,3-triazol-4-yl]-1-methyl-ethyl ester] |  |  |  | 1 to 50 | > 1000 | > 1000 | Mixed | 29
3 | CCCCCCn1c(COC(=O)Cc2ccc(OC(C)(C)C(=O)O)cc2)nn(Cc2ccc(C)cc2)c1=O [Compound 014, 2-(4-(2-((4-hexyl-1-(4-methylbenzyl)-5-oxo-4,5-dihydro-1H-1,2,4-triazol-3-yl)methoxy)-2-oxoethyl)phenoxy)-2-methylpropanoic acid] | Stable | Stable | 19 |  |  |  |  | 
4 | CC(C)(Sc1ccc(C(=O)OCc2cnn(Cc3ccc4c(c3)C(C)(C)CCC4(C)C)c2)cc1)C(=O)O [Compound 29, 2-methyl-2-(4-(((1-((5,5,8,8-tetramethyl-5,6,7,8-tetrahydronaphthalen-2-yl)methyl)-1H-pyrazol-4-yl)methoxy)carbonyl)phenylthio)propanoic acid] |  |  |  | 1 to 50 | > 1000 | > 1000 |  | 
5 | CC(C)(Sc1ccc(C(=O)OCc2cn(Cc3ccc(SC(F)(F)F)cc3)nn2)cc1)C(=O)O [Compound 71, 2-methyl-2-(4-(((1-(4-(trifluoromethylthio)benzyl)-1H-1,2,3-triazol-4-yl)methoxy)carbonyl)phenylthio)propanoic acid] |  |  |  | 51 to 200 | > 1000 | > 1000 |  | 
6 | CCn1c(COC(=O)c2ccc(SC(C)(C)C(=O)O)cc2)nn(Cc2ccc(C(C)(C)C)cc2)c1=O [Compound 195, 2-(4-(((1-(4-tert-butylbenzyl)-4-ethyl-5-oxo-4,5-dihydro-1H-1,2,4-triazol-3-yl)methoxy)carbonyl)phenylthio)-2-methylpropanoic acid] |  |  |  | 1 to 50 | > 1000 | > 1000 |  | 
7 | CC(C)(Sc1ccc(C(=O)OCc2cn(Cc3ccc(OC(F)(F)F)cc3)nn2)cc1)C(=O)O [Compound 73, 2-methyl-2-(4-(((1-(4-(trifluoromethoxy)benzyl)-1H-1,2,3-triazol-4-yl)methoxy)carbonyl)phenylthio)propanoic acid] |  |  |  | 51 to 200 | > 1000 | > 1000 |  | 
8 | CCCn1c(COC(=O)c2ccc(OC(C)(C)C(=O)O)cc2)nn(Cc2cc(C(F)(F)F)cc(C(F)(F)F)c2)c1=O [Compound 206, 2-(4-(((1-(3,5-bis(trifluoromethyl)benzyl)-5-oxo-4-propyl-4,5-dihydro-1H-1,2,4-triazol-3-yl)methoxy)carbonyl)phenoxy)-2-methylpropanoic acid] |  |  |  | 201 to 999 | > 1000 | > 1000 |  | 
9 | C[C@@H](OC(=O)c1ccc(SC(C)(C)C(=O)O)cc1)c1cn(Cc2cccc(C(F)(F)F)c2)nn1 [Compound 139, 4-(1-Carboxy-1-methyl-ethylsulfanyl)-benzoic acid (R)-1-[1-(3-trifluoromethyl-benzyl)-1H-1,2,3-triazol-4-yl]-ethyl ester] |  |  |  | 1 to 50 | > 1000 | > 1000 |  | 
10 | CCCn1c(COC(=O)c2ccc(SC(C)(C)C(=O)O)cc2)nn(Cc2ccc(SC(F)(F)F)cc2)c1=O [Compound 179, 2-methyl-2-(4-(((5-oxo-4-propyl-1-(4-(trifluoromethylthio)benzyl)-4,5-dihydro-1H-1,2,4-triazol-3-yl)methoxy)carbonyl)phenylthio)propanoic acid] |  |  |  | 51 to 200 | > 1000 | > 1000 |  | 
